Experimental findings from patent US9708314B2, “Heterocyclic amide compound” (NISSAN CHEMICAL INDUSTRIES, LTD., priority 2013, dated 2017) are described below.

Type in all cases: in vivo
The subject of data set [1] is Echinochloa oryzacola Vasing. Nature of the data set: Test Example 1: herbicidal activity, application before weed generation in submerged conditions. To be noted: Application herbicide amount 320 g/ha; Seventeenth Table. The essentials:
(§1)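 Rating, on a six-step scale from almost no effect (0) to almost completely withered (5), was made three weeks after pre-emergence treatment. Treatment was surface application to flooded pots at g/ha rates, with plants kept at 25° C. to 30° C.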

For data set [2], the system named is Monochoria vaginalis. The description is as above. To be noted: Application herbicide amount 320 g/ha; Seventeenth Table. The essentials:
as §1

Data set [3] deals with Scirpus juncoides. Described as above. To be noted: Application herbicide amount 320 g/ha; Seventeenth Table. The procedure, abridged: as §1
For data set [4], the system named is transplanted Oryza sativa. In words: Test Example 1: effect on crop, application before weed generation in submerged conditions. The following applies: Application herbicide amount 320 g/ha; Seventeenth Table. The essentials:
as §1

In data set [5] the test system is Abutilon theophrasti. In words: Test Example 4: herbicidal effect by application to foliage (diluvial soil, plastic box). The following applies: for M: Application herbicide amount 320 g/ha. The essentials: (§2)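 Emulsion-formulated compound, diluted to a predetermined g/ha dose, applied by small sprayer to leaves and stems of 14-day-old seedlings grown in sterilized diluvial soil. Effect rated on 0–5 herbicidal-ratio scale three weeks on.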

The test system of data set [6] is Alopecurus myosuroides. The data set is described as above. The following applies: for J: Application herbicide amount 320 g/ha. The procedure, abridged: as §2
For data set [7], the system named is Apera spica-venti. The data set is described as above. To be noted: for L: Application herbicide amount 320 g/ha. The essentials:
as §2

Data set [8] has as its system Avena fatua. The description is as above. The following applies: for I: Application herbicide amount 320 g/ha. The essentials: as §2
Data set [9] concerns Chenopodium album. Described as above. The following applies: for O: Application herbicide amount 320 g/ha. The procedure, abridged:
as §2

In data set [10] the test system is Digitaria ciliaris. Described as above. To be noted: for F: Application herbicide amount 320 g/ha. The essentials: as §2
Data set [11] has as its system Echinochloa crus-galli var. crus-galli. Described as above. The following applies: for H: Application herbicide amount 320 g/ha. The procedure, abridged:
as §2

The test system of data set [12] is Galium spurium. The data set is described as above. The following applies: for Q: Application herbicide amount 320 g/ha. The procedure, abridged:
as §2

Data set [13] concerns Lolium multiflorum Lam. Described as above. To be noted: for K: Application herbicide amount 320 g/ha. The procedure, abridged: as §2
For data set [14], the system named is Setaria viridis. Described as above. To be noted: for G: Application herbicide amount 320 g/ha. The essentials: as §2
For data set [15], the system named is Veronica persica. The description is as above. To be noted: for R: Application herbicide amount 320 g/ha. The essentials:
as §2

For data set [16], the system named is Beta vulgaris ssp. vulgaris. Nature of the data set: Test Example 4: effect on crop by application to foliage (diluvial soil, plastic box). The following applies: for f: Application herbicide amount 320 g/ha, effect on crop. The procedure, abridged:
as §2

Data set [17] relates to Brassica campestris L. The description is as above. To be noted: for g: Application herbicide amount 320 g/ha, effect on crop. The essentials:
as §2

For data set [18], the system named is Glycine max. The description is as above. To be noted: for c: Application herbicide amount 320 g/ha, effect on crop. The essentials: as §2
Data set [19] has as its system Triticum aestivum. Described as above. To be noted: for e: Application herbicide amount 320 g/ha, effect on crop. The essentials:
as §2

The test system of data set [20] is Zea mays. The description is as above. The following applies: for b: Application herbicide amount 320 g/ha, effect on crop. The essentials: as §2
The subject of data set [21] is directly sowed Oryza sativa. The description is as above. The following applies: for d: Application herbicide amount 320 g/ha, effect on crop. The essentials:
as §2

Where [22] appears, read: application to foliage, application herbicide amount 320 g/ha.

SMILES strings stand for the structures.

With `Cc1nnc(NC(=O)c2ccc(C(F)(F)F)n3c(SC(C)(C)C)nnc23)o1` [1-095], the “A: Echinochloa oryzicola Vasing. (herbicidal effect grade)” value in data set [1] was 5 (Herbicidal ratio of 90% or more (almost completely withered)). Besides, the “C: Monochoria vaginalis (herbicidal effect grade)” value (from here on “C: Monochoria vaginalis”) in [2] is listed as 5 (Herbicidal ratio of 90% or more (almost completely withered)). In addition, in data set [3], the “B: Scirpus juncoides (herbicidal effect grade)” value (“B: Scirpus juncoides” for short) is 5 (Herbicidal ratio of 90% or more (almost completely withered)). Besides, the “a: transplanted Oryza sativa (effect on crop grade)” value (from here on “a: transplanted Oryza sativa”) in data set [4] is 1 (Herbicidal ratio of 5% or more and less than 20%). The M in data set [5] was 4 (Herbicidal ratio of 70% or more and less than 90%). The J in [6] was 1 (Herbicidal ratio of 5% or more and less than 20%). The L in data set [7] was 1 (Herbicidal ratio of 5% or more and less than 20%). In addition, the I in data set [8] was 1 (Herbicidal ratio of 5% or more and less than 20%). Moreover, in data set [9], the O is 5 (Herbicidal ratio of 90% or more (almost completely withered)). The F in data set [10] was 5 (Herbicidal ratio of 90% or more (almost completely withered)). The H in data set [11] is listed as 5 (Herbicidal ratio of 90% or more (almost completely withered)). Further, in data set [12], the Q is 3 (Herbicidal ratio of 40% or more and less than 70%). Also, the K in [13] was 2 (Herbicidal ratio of 20% or more and less than 40%). Besides, in [14], the G is 3 (Herbicidal ratio of 40% or more and less than 70%). Further, the R in [15] is on record as 5 (Herbicidal ratio of 90% or more (almost completely withered)). Also, the f in [16] is 5 (Herbicidal ratio of 90% or more (almost completely withered)). Also, the g in [17] is 3 (Herbicidal ratio of 40% or more and less than 70%). For the same compound, the c in data set [18] is 2 (Herbicidal ratio of 20% or more and less than 40%). Moreover, the e in [19] was 1 (Herbicidal ratio of 5% or more and less than 20%). For the same compound, the b in data set [20] is on record as 0 (Herbicidal ratio of 5% or less (almost no effect)). Also, the d in data set [21] was 3 (Herbicidal ratio of 40% or more and less than 70%).
For `COc1cccc(Nc2nnc3c(C(=O)Nc4nnc(C)o4)ccc(C(F)(F)F)n23)n1` [1-102], the “A: Echinochloa oryzicola Vasing. (herbicidal effect grade)” value in data set [1] was 3 (Herbicidal ratio of 40% or more and less than 70%). In [2], the “C: Monochoria vaginalis” value is 2 (Herbicidal ratio of 20% or more and less than 40%). Also, in [3], the “B: Scirpus juncoides” value was 2 (Herbicidal ratio of 20% or more and less than 40%). In addition, the “a: transplanted Oryza sativa” value in [4] is 2 (Herbicidal ratio of 20% or more and less than 40%). Moreover, the M in data set [5] was 3 (Herbicidal ratio of 40% or more and less than 70%). For the same compound, in [6], the J is on record as 0 (Herbicidal ratio of 5% or less (almost no effect)). Also, the L in [7] is listed as 0 (Herbicidal ratio of 5% or less (almost no effect)). The I in data set [8] was 0 (Herbicidal ratio of 5% or less (almost no effect)). Also, the O in data set [9] is 5 (Herbicidal ratio of 90% or more (almost completely withered)). For the same compound, the F in data set [10] is 3 (Herbicidal ratio of 40% or more and less than 70%). In addition, in data set [11], the H was 4 (Herbicidal ratio of 70% or more and less than 90%). The Q in data set [12] was 2 (Herbicidal ratio of 20% or more and less than 40%). In data set [13], the K was 0 (Herbicidal ratio of 5% or less (almost no effect)). Moreover, the G in data set [14] was 3 (Herbicidal ratio of 40% or more and less than 70%). The R in data set [15] was 4 (Herbicidal ratio of 70% or more and less than 90%). Further, the f in data set [16] is 4 (Herbicidal ratio of 70% or more and less than 90%). In addition, the g in data set [17] is 2 (Herbicidal ratio of 20% or more and less than 40%). The c in [18] was 0 (Herbicidal ratio of 5% or less (almost no effect)). Further, in data set [19], the e is 0 (Herbicidal ratio of 5% or less (almost no effect)). Also, the b in [20] is 0 (Herbicidal ratio of 5% or less (almost no effect)). Besides, the d in data set [21] was 1 (Herbicidal ratio of 5% or more and less than 20%).
As to `COCCOCc1nnc2c(C(=O)Nc3nnc(C)o3)ccc(C(F)(F)F)n12` [1-019], the “A: Echinochloa oryzicola Vasing. (herbicidal effect grade)” value in [1] is reported as 5 (Herbicidal ratio of 90% or more (almost completely withered)). In data set [2], the “C: Monochoria vaginalis” value is 4 (Herbicidal ratio of 70% or more and less than 90%). The “B: Scirpus juncoides” value in data set [3] was 3 (Herbicidal ratio of 40% or more and less than 70%). For the same compound, the “a: transplanted Oryza sativa” value in [4] is 2 (Herbicidal ratio of 20% or more and less than 40%). In addition, the “M (Abutilon theophrasti) herbicidal effect” value in data set [5] (setting [22]) was 4 (Herbicidal ratio of 70% or more and less than 90%). Moreover, the “J (Alopecurus myosuroides) herbicidal effect” value in [6] (setting [22]) is 2 (Herbicidal ratio of 20% or more and less than 40%). In addition, in data set [7] (setting [22]), the “L (Apera spica-venti.) herbicidal effect” value was 4 (Herbicidal ratio of 70% or more and less than 90%). For the same compound, the “I (Avena fatua) herbicidal effect” value in data set [8] (setting [22]) is 3 (Herbicidal ratio of 40% or more and less than 70%). Besides, the “O (Chenopodium album) herbicidal effect” value in [9] (setting [22]) is recorded as 5 (Herbicidal ratio of 90% or more (almost completely withered)). Moreover, in data set [10] (setting [22]), the “F (Digitaria ciliaris) herbicidal effect” value is on record as 5 (Herbicidal ratio of 90% or more (almost completely withered)). In addition, the “H (Echinochloa crus-galli var. crus-galli) herbicidal effect” value in data set [11] (setting [22]) is reported as 5 (Herbicidal ratio of 90% or more (almost completely withered)). For the same compound, in data set [12] (setting [22]), the “Q (Galium spurium) herbicidal effect” value is 4 (Herbicidal ratio of 70% or more and less than 90%). In addition, the “K (Lolium multiflorum Lam.) herbicidal effect” value in [13] (setting [22]) is 2 (Herbicidal ratio of 20% or more and less than 40%). The “G (Setaria viridis) herbicidal effect” value in [14] (setting [22]) is 4 (Herbicidal ratio of 70% or more and less than 90%). In addition, the “R (Veronica persica) herbicidal effect” value in data set [15] (setting [22]) was 4 (Herbicidal ratio of 70% or more and less than 90%). Also, in [16] (setting [22]), the “f (Beta vulgaris ssp. vulgaris) effect on crop” value is reported as 5 (Herbicidal ratio of 90% or more (almost completely withered)). The “g (Brassica campestris L.) effect on crop” value in [17] (setting [22]) is 4 (Herbicidal ratio of 70% or more and less than 90%). For the same compound, in [18] (setting [22]), the “c (Glycine max) effect on crop” value was 2 (Herbicidal ratio of 20% or more and less than 40%). In addition, the “e (Triticum aestivum) effect on crop” value in data set [19] (setting [22]) is 3 (Herbicidal ratio of 40% or more and less than 70%). The “b (Zea mays) effect on crop” value in data set [20] (setting [22]) was 2 (Herbicidal ratio of 20% or more and less than 40%). Further, the “d (directly sowed Oryza sativa) effect on crop” value in data set [21] (setting [22]) is 4 (Herbicidal ratio of 70% or more and less than 90%).
Take `CSCCc1nnc2c(C(=O)Nc3nnc(C)o3)ccc(C(F)(F)F)n12` [1-083]: the “A: Echinochloa oryzicola Vasing. (herbicidal effect grade)” value in data set [1] is 2 (Herbicidal ratio of 20% or more and less than 40%). The “C: Monochoria vaginalis” value in [2] is 3 (Herbicidal ratio of 40% or more and less than 70%). In addition, the “B: Scirpus juncoides” value in data set [3] is 3 (Herbicidal ratio of 40% or more and less than 70%). Besides, the “a: transplanted Oryza sativa” value in data set [4] is given as 0 (Herbicidal ratio of 5% or less (almost no effect)). Moreover, the M in data set [5] was 5 (Herbicidal ratio of 90% or more (almost completely withered)). The J in data set [6] is given as 0 (Herbicidal ratio of 5% or less (almost no effect)). Besides, in data set [7], the L is 0 (Herbicidal ratio of 5% or less (almost no effect)). Also, the I in data set [8] was 3 (Herbicidal ratio of 40% or more and less than 70%). Moreover, the O in data set [9] is 5 (Herbicidal ratio of 90% or more (almost completely withered)). In addition, the F in data set [10] was 5 (Herbicidal ratio of 90% or more (almost completely withered)). In [11], the H was 5 (Herbicidal ratio of 90% or more (almost completely withered)). In addition, the Q in [12] was 4 (Herbicidal ratio of 70% or more and less than 90%). The K in data set [13] was 1 (Herbicidal ratio of 5% or more and less than 20%). Besides, in data set [14], the G is recorded as 5 (Herbicidal ratio of 90% or more (almost completely withered)). The R in data set [15] was 4 (Herbicidal ratio of 70% or more and less than 90%). The f in [16] is listed as 5 (Herbicidal ratio of 90% or more (almost completely withered)). In addition, in [17], the g is 4 (Herbicidal ratio of 70% or more and less than 90%). Also, the c in data set [18] was 1 (Herbicidal ratio of 5% or more and less than 20%). In data set [19], the e was 1 (Herbicidal ratio of 5% or more and less than 20%). Besides, the b in data set [20] was 1 (Herbicidal ratio of 5% or more and less than 20%). The d in [21] was 4 (Herbicidal ratio of 70% or more and less than 90%).
